Results taken from PubChem BioAssay (NCI).
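Exposure lasted 48 hours, with cells grown in 96-well plates and compounds tested at five concentrations. TGI denotes the concentration required for complete inhibition of growth.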

Tests used:
Experiment in all cases: NCI-60 cell line screen, 48 h
[1] = system: SNB-19 CNS
[2] = system: KM12 colon
[3] = system: 786-0 renal
[4] = system: SF-295 CNS
[5] = system: RXF 393 renal
[6] = system: SK-MEL-5 melanoma
[7] = system: IGROV1 ovarian
[8] = system: SF-539 CNS
[9] = system: OVCAR-8 ovarian
[10] = system: MDA-N
[11] = system: OVCAR-3 ovarian
[12] = system: UACC-62 melanoma
[13] = system: DU-145 prostate

Row | SMILES | TGI [1] [µM] | TGI [2] [µM] | TGI [3] [µM] | TGI [4] [µM] | TGI [5] [µM] | TGI [6] [µM] | TGI [7] [µM] | TGI [8] [µM] | TGI [9] [µM] | TGI [10] [µM] | TGI [11] [µM] | TGI [12] [µM] | TGI [13] [µM]
1 | CCOC1Oc2ccccc2-c2nc(SC)ncc21 (stereo not drawn) | > 100 | > 100 | > 100 | > 100 | > 100 | > 100 | > 100 | > 100 | > 100 | > 100 | > 100 | > 100 | > 100
2 | COc1ccc2cc(-c3nc(N)nc(N4N=C(C)CC4(C)C)n3)c(=N)oc2c1 | 40.1 | 30.6 | 36.3 | 33.2 | 58.9 | 30.1 | 37.8 | 30.2 | 49.8 | 33.5 | 28.5 | 36.3 | 32.6
3 | Cc1ccc(S(=O)c2sccc2C=O)cc1 (stereo not drawn) | > 100 | 70.3 | > 100 | 71.3 | > 100 | > 100 | 74.3 | 41.7 | 56.5 | > 100 |  | 55.3 | > 100
4 | O=C(CSc1nc2ccc(I)cc2c(=O)n1Cc1ccccc1)NNC(=O)c1ccccc1 | 63.3 | > 100 | 21 | 30.7 | 17.5 | 33 | 24.7 | 8.11 | 20.7 | > 100 | 90.4 | > 100 | 45.9
5 | Cn1c(=O)sc2cc(C(=S)N3CCC(Cc4ccccc4)CC3)ccc21 | > 100 | > 100 | > 100 | > 100 | > 100 | > 100 | > 100 | > 100 | > 100 | > 100 | > 100 | > 100 | > 100
6 | CN(c1cn(C2CC[C@@H](CO)O2)c(=O)[nH]c1=O)C1CCCCC1 (stereo partly drawn) | > 100 | > 100 | > 100 | > 100 | > 100 | > 100 | > 100 | > 100 | > 100 | > 100 | > 100 | > 100 | > 100
7 | CC(OC(=O)C(CC(=O)OC(C)(C)C)NC(=O)OC(C)(C)C)C(=O)OCc1ccccc1 (stereo not drawn) | > 100 | > 100 | > 100 | > 100 | > 100 |  | > 100 | > 100 | > 100 | > 100 | > 100 | > 100 | > 100
8 | CC(=O)OC12c3ccccc3-c3ccccc3C1C1C(=O)OC(=O)C12 (stereo not drawn) | > 10 | > 10 | > 10 | > 10 | > 10 | > 10 | > 10 | > 10 | > 10 | > 10 | > 10 |  | > 10
9 | COc1ccc(/C=C2\CCC/C(=C\c3ccc(O)c(CN4CCCCC4)c3)C2=O)cc1 | 70.2 |  | 19.3 | 36.4 | 41 | 39.5 | 41.5 | 16.1 | 13.6 | 37.2 | 46.3 | 36.1 | 36.9
